According to patent publication US20030022932A1, “Methods for regulating bacteria” (priority 2001, published 2003):

System: Pseudomonas aeruginosa
Test: agar bead model of rat chronic respiratory infection (quantitative lung pathology, histopathology)
Format: in vivo
Conditions: 7 days post-infection
Procedure: The following Examples illustrate the effect of normal flora and the presence of autoinducer-2 (AI-2) on Pseudomonas aeruginosa infection in the agar bead model of rat chronic respiratory infection. Groups of 15 rats (male Sprague-Dawley 180-200 grams) were inoculated intratracheally with 0.05 mL suspensions of bacteria embedded in agar beads. Seven days post-infection each group was treated as follows: (1) five rats—lungs removed for quantitative microbiology; (2) five rats—bronchoaveolar lavage (BAL) were obtained and analyzed for total cell counts, neutrophils, neutrophil elastase and AI-2 activity; and (3) five rats—lungs removed for histology (quantitative pathology). In the microphotographs shown in FIGS. 4-7, the dark areas indicate regions of consolidation, an indication of tissue damage. An α-hemolytic Streptococcus isolate (designated CFX5) from a cystic fibrosis patient was used to supply naturally synthesized AI-2 in vivo.
Rats inoculated with agar beads containing Pseudomonas aeruginosa alone yielded the quantitative pathology shown in FIG. 3 (PAO), and the histopathology shown in the microphotograph of FIG. 4
Rats inoculated with agar beads containing Pseudomonas aeruginosa alone and exposed to synthetic AI-2 yielded the quantitative pathology shown in FIG. 3 (PAO/AI-2), and the histopathology shown in FIG. 5.
Rats inoculated with agar beads containing Pseudomonas aeruginosa +α-hemolytic Streptococcus (CFX5) yielded the quantitative pathology shown in FIG. 3 (PAO/NF), and the histopathology shown in FIG. 6.
Rats inoculated with agar beads containing Pseudomonas aeruginosa +α-hemolytic Streptococcus (CFX5), treated daily for six days with aerosolized QXO18 (2-pentyl-2-cyclopenten-1-one), an AI-2 antagonist, yielded the quantitative pathology shown in FIG. 3 (PAO/NF/QXO18), and the histopathology shown in FIG. 7.

Row | Compound | lung pathology caused by Pseudomonas aeruginosa (percent of lung tissue showing consolidation) (Pseudomonas aeruginosa + α-hemolytic Streptococcus (CFX5), treated daily for six days with aerosolized compound, PAO/NF/QXO18 vs PAO/NF) | lung pathology caused by Pseudomonas aeruginosa (percent of lung tissue showing consolidation) (AI-2 supplied endogenously by co-infecting α-hemolytic Streptococcus isolate CFX5, PAO/NF) | lung pathology caused by Pseudomonas aeruginosa (percent of lung tissue showing consolidation) (rats inoculated with Pseudomonas aeruginosa alone, exposed to synthetic (exogenously supplied) AI-2, PAO/AI-2 vs PAO)
1 | CCCCCC1=CCCC1=O [2-pentyl-2-cyclopenten-1-one] | greatly diminishes the increased lung pathology |  | 
2 | autoinducer-2 [AI-2] |  | increases the lung pathology even more | increases the lung pathology
